Assay [1] concerns the target T1, human mAChR M1 (Homo sapiens, UniProt P11229).
T1 sequence (P11229 1-460): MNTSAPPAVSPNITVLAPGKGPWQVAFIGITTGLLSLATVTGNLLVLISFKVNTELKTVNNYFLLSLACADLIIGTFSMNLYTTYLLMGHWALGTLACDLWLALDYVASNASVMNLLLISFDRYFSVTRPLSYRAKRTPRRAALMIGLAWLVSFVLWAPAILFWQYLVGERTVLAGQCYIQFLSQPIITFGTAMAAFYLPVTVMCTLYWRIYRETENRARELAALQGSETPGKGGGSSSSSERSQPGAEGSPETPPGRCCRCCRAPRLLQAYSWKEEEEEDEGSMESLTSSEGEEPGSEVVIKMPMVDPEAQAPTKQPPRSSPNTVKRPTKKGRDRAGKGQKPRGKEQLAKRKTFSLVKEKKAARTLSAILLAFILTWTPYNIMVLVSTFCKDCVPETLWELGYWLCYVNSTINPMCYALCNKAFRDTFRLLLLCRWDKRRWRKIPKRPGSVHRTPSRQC
Nature of the assay: mAChR M1 cell-based functional assay (calcium mobilization), agonist mode: compound alone, Emax relative to acetylcholine maximum. The conditions noted are these: for Agonist Activity Human M1 EC50: human mAChR M1; for Emax: relative to the maximum for acetylcholine. A digest of the protocol:
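Agonist activity is the concentration-dependent rise in intracellular calcium (Fluo-4, 1 Hz read) after compound addition, measured before any acetylcholine was added, in stable hM1 CHO-K1 cells. Curves were 11-point, 1:3 dilutions fitted by four-parameter logistic. Emax is given as a fraction of maximal acetylcholine response.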
For orientation: Calcium flux is commonly read through the fluorescence of an indicator in the cells.

Assay [2] deals with T1, human mAChR M1. Nature of the assay: mAChR M1 cell-based functional assay (calcium mobilization), PAM mode: increase in the EC20 acetylcholine response. A digest of the protocol:
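PAM readout is the concentration-dependent rise in the EC20 acetylcholine calcium signal, fitted to a four-parameter logistic (EC50, Emax). Compounds were preincubated from 4 s before ACh at 144 s (EC20) and 230 s (EC80). hM1-expressing CHO-K1 cells loaded with Fluo-4, FDSS ratio read.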

Each structure is given as a SMILES string. Where only a bound is given, the exact number is not on record here.

Turning to `[2H]C1([2H])c2ncccc2C(=O)N1Cc1ccc(-c2ccc3nn(C)cc3c2C)cc1` [Compound 238, 6-(4-(2,4-dimethyl-2H-indazol-5-yl)benzyl)-6,7-dihydro-5H-pyrrolo[3,4-b]pyridin-5-one-7,7-d2], on human mAChR M1 [1], the “Agonist Activity Human M1 EC50” value is reported as “Inactive” and the maximal effect (Emax) (commonly the maximal effect, on the per cent scale that the assay sets) amounted to 2%. At human mAChR M1 [2], the 50% effective concentration (EC50) (as a rule, the midpoint of the concentration-response curve) is greater than 10 µM and the maximal effect (Emax) was 39%.
The like results for `[2H]C1([2H])c2ncccc2C(=O)N1Cc1ccc(-c2cccc3nncn23)cc1` [Compound 239, 6-(4-([1,2,4]triazolo[4,3-a]pyridin-5-yl)benzyl)-6,7-dihydro-5H-pyrrolo[3,4-b]pyridin-5-one-7,7-d2] were, in that order, “Inactive”, 3%, greater than 10 µM and 44%.
In the same order, the values of `[2H]c1nnc2cccc(-c3ccc(CN4C(=O)c5cccnc5C4([2H])[2H])cc3)n12` [Compound 240, 6-(4-([1,2,4]triazolo[4,3-a]pyridin-5-yl-3-d)benzyl)-6,7-dihydro-5H-pyrrolo[3,4-b]pyridin-5-one-7,7-d2] are “Inactive”, 3%, greater than 10 µM and 27%.
In the same order, the values of `[2H]C1([2H])c2ncccc2C(=O)N1Cc1ccc(-c2cccc3ccnn23)cc1` [Compound 241, 6-(4-(pyrazolo[1,5-a]pyridin-7-yl)benzyl)-6,7-dihydro-5H-pyrrolo[3,4-b]pyridin-5-one-7,7-d2] are “Inactive”, 3%, greater than 10 µM and 41%.
As for `[2H]C1([2H])c2ncccc2C(=O)N1Cc1ccc(-c2ccc3nn(C)cc3c2C)cc1F` [Compound 242, 6-(4-(2,4-dimethyl-2H-indazol-5-yl)-2-fluorobenzyl)-6,7-dihydro-5H-pyrrolo[3,4-b]pyridin-5-one-7,7-d2], on human mAChR M1 [1], the “Agonist Activity Human M1 EC50” value is reported as “Inactive” and the Emax came to 3%. On human mAChR M1 [2], the 50% effective concentration (EC50) is greater than 10 µM and the Emax is 43%.
In the same order, the values of `[2H]C1([2H])c2ncccc2C(=O)N1Cc1c(F)cc(-c2cccc3c2cnn3C(F)F)cc1F` [Compound 243, 6-(4-(1-(difluoromethyl)-1H-indazol-4-yl)-2,6-difluorobenzyl)-6,7-dihydro-5H-pyrrolo[3,4-b]pyridin-5-one-7,7-d2] are “Inactive”, 5%, greater than 10 µM and 34%.
In the same order, the values of `[2H]C1([2H])c2ncccc2C(=O)N1Cc1c(F)cc(-c2ccc(C(F)(F)F)c3c2cnn3C([2H])([2H])[2H])cc1F` [Compound 244, 6-(2,6-difluoro-4-(1-(methyl-d3)-7-(trifluoromethyl)-1H-indazol-4-yl)benzyl)-6,7-dihydro-5H-pyrrolo[3,4-b]pyridin-5-one-7,7-d2] are “Inactive”, 2%, greater than 10 µM and 34%.
The like results for `[2H]C1([2H])c2ncccc2C(=O)N1Cc1c(F)cc(-c2cc(F)c(Cl)c3nn(C)cc23)cc1F` [Compound 245, 6-(4-(7-chloro-6-fluoro-2-methyl-2H-indazol-4-yl)-2,6-difluorobenzyl)-6,7-dihydro-5H-pyrrolo[3,4-b]pyridin-5-one-7,7-d2] were, in that order, “Inactive”, 1%, greater than 10 µM and 47%.
With `[2H]C1([2H])c2ncccc2C(=O)N1Cc1c(F)cc(-c2cc(Cl)cc3c2cnn3C([2H])([2H])[2H])cc1F` [Compound 246, 6-(4-(6-chloro-1-(methyl-d3)-1H-indazol-4-yl)-2,6-difluorobenzyl)-6,7-dihydro-5H-pyrrolo[3,4-b]pyridin-5-one-7,7-d2], at human mAChR M1 [1], the “Agonist Activity Human M1 EC50” value was “Inactive” and the maximal response (Emax) is 2%. In addition, on human mAChR M1 [2], the half-maximal effective concentration (EC50) is greater than 10 µM and the Emax turned out to be 25%.
In the same order, the values of `[2H]C1([2H])c2ncccc2C(=O)N1Cc1c(F)cc(-c2cc(F)cc3c2cnn3C([2H])([2H])[2H])cc1F` [Compound 247, 6-(2,6-difluoro-4-(6-fluoro-1-(methyl-d3)-1H-indazol-4-yl)benzyl)-6,7-dihydro-5H-pyrrolo[3,4-b]pyridin-5-one-7,7-d2] are “Inactive”, 2%, greater than 10 µM and 29%.
In the same order, the values of `[2H]C1([2H])c2ncccc2C(=O)N1Cc1c(F)cc(-c2cc(F)c(Cl)c3nn(C([2H])([2H])[2H])cc23)cc1F` [Compound 248, 6-(4-(7-chloro-6-fluoro-2-(methyl-d3)-2H-indazol-4-yl)-2,6-difluorobenzyl)-6,7-dihydro-5H-pyrrolo[3,4-b]pyridin-5-one-7,7-d2] are “Inactive”, 2%, greater than 10 µM and 34%.
The like results for `[2H]C1([2H])c2ncccc2C(=O)N1Cc1c(F)cc(-c2cc(F)c(Cl)c3c2cnn3C([2H])([2H])[2H])cc1F` [Compound 249, 6-(4-(7-chloro-6-fluoro-1-(methyl-d3)-1H-indazol-4-yl)-2,6-difluorobenzyl)-6,7-dihydro-5H-pyrrolo[3,4-b]pyridin-5-one-7,7-d2] were, in that order, “Inactive”, 14%, greater than 10 µM and 20%.
As to `[2H]C1([2H])c2ncccc2C(=O)N1Cc1c(F)cc(-c2ccc(OC(C)C)c3c2cnn3C([2H])([2H])[2H])cc1F` [Compound 250, 6-(2,6-difluoro-4-(7-isopropoxy-1-(methyl-d3)-1H-indazol-4-yl)benzyl)-6,7-dihydro-5H-pyrrolo[3,4-b]pyridin-5-one-7,7-d2], on human mAChR M1 [1], the “Agonist Activity Human M1 EC50” value is reported as “Inactive” and the Emax was found to be 3%. Moreover, at human mAChR M1 [2], the EC50 was greater than 10 µM and the Emax was 51%.
In the same order, the values of `[2H]C1([2H])c2ncccc2C(=O)N1Cc1c(F)cc(-c2ccc(OC(F)(F)F)c3c2cnn3C([2H])([2H])[2H])cc1F` [Compound 251, 6-(2,6-difluoro-4-(1-(methyl-d3)-7-(trifluoromethoxy)-1H-indazol-4-yl)benzyl)-6,7-dihydro-5H-pyrrolo[3,4-b]pyridin-5-one-7,7-d2] are “Inactive”, 2%, greater than 10 µM and 12%.
Turning to `[2H]C1([2H])c2ncccc2C(=O)N1Cc1c(F)cc(-c2cc(F)c(F)c3c2cnn3C([2H])([2H])[2H])cc1F` [Compound 252, 6-(4-(6,7-difluoro-1-(methyl-d3)-1H-indazol-4-yl)-2,6-difluorobenzyl)-6,7-dihydro-5H-pyrrolo[3,4-b]pyridin-5-one-7,7-d2], at human mAChR M1 [1], the “Agonist Activity Human M1 EC50” value is given as “Inactive” and the Emax was 2%. At human mAChR M1 [2], the EC50 was greater than 10 µM and the maximal effect (Emax) came to 15%.
As for `[2H]C1([2H])c2ncccc2C(=O)N1Cc1c(F)cc(-c2cnc(OC)c3c2cnn3C)cc1F` [Compound 253, 6-(2,6-difluoro-4-(7-methoxy-1-methyl-1H-pyrazolo[3,4-c]pyridin-4-yl)benzyl)-6,7-dihydro-5H-pyrrolo[3,4-b]pyridin-5-one-7,7-d2], at human mAChR M1 [1], the “Agonist Activity Human M1 EC50” value is listed as “Inactive” and the Emax stood at 2%. Moreover, at human mAChR M1 [2], the EC50 is greater than 10 µM and the Emax was 27%.

The values are drawn from US20240228489A1, “POSITIVE ALLOSTERIC MODULATORS OF THE MUSCARINIC ACETYLCHOLINE RECEPTOR M1” (Vanderbilt University, priority 2021, published 2024).
